These results are taken from patent publication US8173633B2, “Protein kinase C activity enhancer containing alkyl ether derivative or salt thereof” (Toyama Chemical Co., Ltd., priority 2006, dated 2012).

This assay has as its target T1, PKCε (Rattus norvegicus, UniProt P09216).
T1 construct: The cerebral cortex was removed from 18-day fetuses of Wistar/ST rats; endogenous in cells; host or cells: primary cultured cerebral cortex cells from 18-day fetuses of Wistar/ST rats
T1 sequence (P09216 1-737): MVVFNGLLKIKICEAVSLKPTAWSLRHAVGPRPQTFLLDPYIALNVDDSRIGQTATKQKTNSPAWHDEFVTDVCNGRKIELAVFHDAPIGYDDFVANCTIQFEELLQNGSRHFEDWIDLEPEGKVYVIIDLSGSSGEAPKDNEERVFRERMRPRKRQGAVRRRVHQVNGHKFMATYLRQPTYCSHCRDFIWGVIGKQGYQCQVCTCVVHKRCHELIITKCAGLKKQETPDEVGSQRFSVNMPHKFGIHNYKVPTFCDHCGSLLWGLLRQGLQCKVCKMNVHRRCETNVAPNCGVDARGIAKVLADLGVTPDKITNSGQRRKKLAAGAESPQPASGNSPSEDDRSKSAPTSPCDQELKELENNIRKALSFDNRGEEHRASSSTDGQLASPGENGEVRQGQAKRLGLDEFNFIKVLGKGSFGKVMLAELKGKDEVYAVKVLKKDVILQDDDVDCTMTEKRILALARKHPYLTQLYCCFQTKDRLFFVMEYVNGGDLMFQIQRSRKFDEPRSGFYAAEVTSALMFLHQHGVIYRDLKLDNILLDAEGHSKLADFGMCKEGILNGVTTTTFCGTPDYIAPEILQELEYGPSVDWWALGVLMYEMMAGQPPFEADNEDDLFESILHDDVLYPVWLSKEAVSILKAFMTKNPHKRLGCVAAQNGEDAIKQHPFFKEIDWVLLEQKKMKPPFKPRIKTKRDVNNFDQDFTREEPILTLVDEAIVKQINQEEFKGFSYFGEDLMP
The experiment in a line: PKC activity enhancing effect in cultured cells (PKCε migration from cytosol to membrane fraction, western blotting). As to conditions: cultured fetal rat cerebral cortex cells, 0.1 μmol/L in terms of T-817, FIG. 1. Format: cell-based, Wistar/ST rats. On the procedure:
The PKC activity was determined, according to the method of Etcheberrigaray et al. (Proceedings of the National Academy of Sciences of the United States of America, 2004, Vol. 101, No. 30, p. 11141-11146), as applicable. At the time of activation, PKC migrates from the cytoplasm to membranes. The PKC level in the membrane fraction over that in the cytosol fraction was taken as the index of PKC activation. In this experiment, the activity of PKCε, a known isoform of PKC, was measured.
Cultured cells were prepared following the method of Hirata et al. (J. Pharmacol. Exp. Ther., 2005, Vol. 314, No. 1, p. 252-259). […]
On Day 8 from the start of the culturing, T-817MA was added to the cells to a final concentration of 0.1 μmol/L, in terms of T-817, After this addition, the cells were washed with PBS at 0 (untreated), 1, 2 and 4 hours. […] The protein concentration in the cytosol fraction and the membrane fraction was measured, and the protein content in each sample was adjusted to a certain constant level with the extraction buffer or the extraction buffer containing Triton X-100, These samples were then diluted with electrophoresis buffer containing mercaptoethanol (manufactured by Wako Pure Chemical Industries Ltd.) and SDS-PAGE (40 mA, 30 minutes) was carried on 10% polyacrylamide gel. […]
For orientation: In western blotting, separated proteins are transferred to a membrane and probed.

Each structure is given as a SMILES string.

With `O=C(O)/C=C\C(=O)O.OC1CN(CCCOCCc2ccc3sccc3c2)C1` [T-817MA], the “PKCε migration from the cytoplasm to membranes (index of PKC activation)” value runs as follows: (2 hours after treatment) “migrated from the cytoplasm to membranes”; (4 hours after treatment) “migrated from the cytoplasm to membranes”.
